Measured values from the supplement of paper PMC11451515.

Test system: NOMO1
Assay: cell viability relative to DMSO control; higher = less cytotoxic
Conditions: 48 h
Summary of the method: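 Library compounds in DMSO were pin-dosed in an 11-point threefold series (47 μM to 0.79 nM) onto leukemia cells in 1536-well plates (5 μl). Plates held 500 cells/well of NOMO1 or SEM or 1000 cells/well of P12-Ichikawa, each adapted for at least four passages in each medium. Luminescence was read with CellTiter-Glo One after 48 h at 37°C. Viability means the per-plate percentage relative to DMSO wells, using cell-free wells as background.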

[1] = RPMI 5 mM glucose + 10% FBS, 0.000781 µM
[2] = RPMI 5 mM glucose + 10% FBS, 0.00234 µM
[3] = RPMI 5 mM glucose + 10% FBS, 0.00702 µM
[4] = RPMI 5 mM glucose + 10% FBS, 0.0211 µM
[5] = RPMI 5 mM glucose + 10% FBS, 0.0632 µM
[6] = RPMI 5 mM glucose + 10% FBS, 0.19 µM
[7] = RPMI 5 mM glucose + 10% FBS, 0.569 µM
[8] = RPMI 5 mM glucose + 10% FBS, 1.71 µM
[9] = RPMI 5 mM glucose + 10% FBS, 5.12 µM
[10] = RPMI 5 mM glucose + 10% FBS, 15.4 µM
[11] = RPMI 5 mM glucose + 10% FBS, 46.1 µM
[12] = HPLM + 10% dialyzed FBS, 0.000781 µM
[13] = HPLM + 10% dialyzed FBS, 0.00234 µM
[14] = HPLM + 10% dialyzed FBS, 0.00702 µM
[15] = HPLM + 10% dialyzed FBS, 0.0211 µM
[16] = HPLM + 10% dialyzed FBS, 0.0632 µM
[17] = HPLM + 10% dialyzed FBS, 0.19 µM
[18] = HPLM + 10% dialyzed FBS, 0.569 µM
[19] = HPLM + 10% dialyzed FBS, 1.71 µM
[20] = HPLM + 10% dialyzed FBS, 5.12 µM
[21] = HPLM + 10% dialyzed FBS, 15.4 µM
[22] = HPLM + 10% dialyzed FBS, 46.1 µM
[23] = RPMI 5 mM glucose + 10% dialyzed FBS, 0.000781 µM
[24] = RPMI 5 mM glucose + 10% dialyzed FBS, 0.00234 µM
[25] = RPMI 5 mM glucose + 10% dialyzed FBS, 0.00702 µM
[26] = RPMI 5 mM glucose + 10% dialyzed FBS, 0.0211 µM
[27] = RPMI 5 mM glucose + 10% dialyzed FBS, 0.0632 µM
[28] = RPMI 5 mM glucose + 10% dialyzed FBS, 0.19 µM
[29] = RPMI 5 mM glucose + 10% dialyzed FBS, 0.569 µM
[30] = RPMI 5 mM glucose + 10% dialyzed FBS, 1.71 µM
[31] = RPMI 5 mM glucose + 10% dialyzed FBS, 5.12 µM
[32] = RPMI 5 mM glucose + 10% dialyzed FBS, 15.4 µM
[33] = RPMI 5 mM glucose + 10% dialyzed FBS, 46.1 µM

SMILES	cell viability [1] [%]	cell viability [2] [%]	cell viability [3] [%]	cell viability [4] [%]	cell viability [5] [%]	cell viability [6] [%]	cell viability [7] [%]	cell viability [8] [%]	cell viability [9] [%]	cell viability [10] [%]	cell viability [11] [%]	cell viability [12] [%]	cell viability [13] [%]	cell viability [14] [%]	cell viability [15] [%]	cell viability [16] [%]	cell viability [17] [%]	cell viability [18] [%]	cell viability [19] [%]	cell viability [20] [%]	cell viability [21] [%]	cell viability [22] [%]	cell viability [23] [%]	cell viability [24] [%]	cell viability [25] [%]	cell viability [26] [%]	cell viability [27] [%]	cell viability [28] [%]	cell viability [29] [%]	cell viability [30] [%]	cell viability [31] [%]	cell viability [32] [%]	cell viability [33] [%]
CNC(=O)C1=CC=C(C)C(=C1)N2C(=C/C(=C(/Br)C2=O)OCC3=C(F)C=C(F)C=C3)\C	114	128	122	127	127	151	139	137	136	145	130																						
C1CCN2C[C@H]3C[C@H](\C=C/4CCCN[C@@H]34)[C@H]2C1	105	105	108	104	98.7	108	104	105	108	63.7	55	96.5	113	113	133	96.1	122	137	107	115	99.5	92.8	107	108	114	121	108	108	120	111	120	78.6	64.2
CNC(=O)[C@H](CC/1=C/N=C\2/C=C\C\C=C12)NC(=O)[C@H](CC(C)C)CC(=O)NO	99.5	109	89.2	102	113	103	97	97.3	97.4	11.9	14.1	108	102	113	111	120	124	123	88.3	78.6	25.4	25.6	114	124	112	111	120	113	109	113	112	21.1	22.5
Cc1nc(Nc2n[nH]c3c2CN(C(=O)N[C@H](CN(C)C)c2ccccc2)C3(C)C)c2sccc2n1	82.6	85	91.1	82.6	71.8	54.2	53.2	40.5	38.7	25.6	2.97	89.4	82.7	70.7	74.1	65.7	53.8	54.3	40.2	41.2	23.1	2.58	80.3	86.9	78.3	72.6	55.8	58	60.1	38.9	40.9	31	2.28
Cc1ccc2c(c1)c1c(n2CCc2ccc(C)nc2)CCN(C)C1												126	115	111	130	128	130	141	134	141	153	127											
COC1=CC=C2/C3=N/CCN3\C(=N/C2=C1OC)NC(=O)C4=CC=CN=C4	104	115	113	123	132	108	110	114	107	115	92.7	124	132	123	131	121	126	114	111	93.2	86	78.6	116	141	117	127	131	104	103	103	83.6	76.5	68
Nc1ncnc2c1nc(Cl)n2[C@@H]1O[C@H](CO)[C@@H](O)[C@H]1O	116	123	110	120	120	113	106	110	118	108	14.5																						
CNC(=O)CN1CCC(Oc2cc3c(Nc4cccc(Cl)c4F)ncnc3cc2OC)CC1																							116	122	138	133	141	144	52.7	41.8	32.1	33.7	31.7
COC1=CC=C(C=C1O)C/2=C/C(=O)C3=C(O2)C=C(O[C@@H]4O[C@H](CO[C@@H]5O[C@@H](C)[C@H](O)[C@@H](O)[C@H]5O)[C@@H](O)[C@H](O)[C@H]4O)C=C3O	112	103	110	115	130	114	126	125	126	124	114	112	118	129	126	130	142	134	117	117	129	139											
N#C/N=C(\NCCCCCCOc1ccc(Cl)cc1)Nc1ccncc1	61	41.9	22	19.2	15.7	9.97	11.4	8.82	9.25	8.91	6.02	49.3	47.6	19.9	15.5	12.6	11.9	9.75	9.76	9.75	8.47	6.05	81.6	58.1	26.1	21	12.5	12.2	9.8	8.26	7.27	6.87	5.38
C[C@](N)(Cc1ccc(O)c(O)c1)C(=O)O	86.4	80.1	93.9	82	81.7	81	76.5	78.4	82.9	76.9	74.1	84.9	84.3	96.8	74.9	89.4	82	76.7	69.9	92.9	76.8	72.6	88.3	88.5	85	87.1	92.2	85.7	78.1	87.2	82.3	79	77.9
CCOC(=O)\C1=C\[C@@H](OC(CC)CC)[C@H](NC(C)=O)[C@@H](N)C1	91.9	92.5	94.9	91.9	95.1	98.9	95.7	102	88.9	103	82.7	90.4	86.1	94.3	98.9	93.7	107	92.5	93.1	84	86.9	86.4	84.4	93.4	102	87.4	94.9	106	93.6	91.7	99.3	103	87.1
C[S+](=O)([O-])c1ccc(Oc2cc(F)cc(C#N)c2)c2c1[C@H](O)C(F)(F)C2	92.7	111	101	103	119	117	101	112	124	108	114	96.5	123	123	112	119	119	139	126	112	120	121	97.4	102	103	109	111	127	123	125	117	125	114
CC(C)(C)[C@H](NC(=O)c1ccc(N)c(Cl)c1)C(=O)N1CCC[C@H]1C(=O)N[C@H](C#N)CC(=O)O	113	126	112	118	120	126	116	30	23	22.7	20.6																						
NC(=O)Nc1cc(-c2cccc(F)c2)sc1C(=O)N[C@H]1CCCNC1												125	102	141	107	147	92.1	59.2	42	24.7	26.9	26.2	121	122	136	134	136	139	81.7	33.2	24.4	21.6	23.4
C=CCc1ccc(O)c(-c2ccc(O)c(CC=C)c2)c1	107	105	119	118	122	112	95.3	61	51	60.4	62.6	111	117	112	120	112	94.8	90.6	93.4	84.3	86.8	88.7	114	106	107	112	119	111	91.4	54.7	47.9	58.9	53.8
Cn1cc(C[C@@H](N)C(=O)O)c2ccccc21	90.4	90.7	96.5	107	89.6	95.1	95.6	95.5	92.6	97.9	81.2	107	106	108	106	92.4	111	100	101	101	90.8	94.9	90	90.1	93.4	94	101	98.9	93.8	88.9	93.3	87	76.7
NC(=O)c1ncn([C@@H]2O[C@H](CO)[C@@H](O)[C@H]2O)c1O	122	125	114	118	114	136	129	127	112	112	117												122	127	115	113	106	120	118	103	115	118	112
Cc1c(C)c2c(c(C)c1O)CCC(C)(COc1ccc(CC3SC(=O)NC3=O)cc1)O2 (configuration not stated)												122	123	114	133	125	126	142	138	132	116	125											
